Measurements reported in US9303036B2, “Crystalline asenapine hydrochloride salt forms” (Sandoz AG, priority 2011, dated 2016).
Where a name gives a salt, the structure may show the parent alone.

Experiments:
[1] = 23° C., pH=4.4; cited from earlier work
[2] = Solubility of Asenapine maleate in saturated solution (Funke et al., literature); format: physicochemical; conditions: water (saturated solution), thermodynamic from solid, converted from the maleate salt value at 23° C., pH=4.4, read-out: free base solubility
Excerpt: Certain crystalline addition salts of Asenapine, for instance a fumarate (EP 0569096), salts with sulfonic acids (WO 98/54186), and a pamoate or hemipamoate salt (EP 0569096), are described in the literature. The pamoate salt is disclosed to be amorphous and the hemipamoate salt is a mixture of amorphous and crystalline phase, wherein the palmitate is described as oil. The marketed form is the maleate salt, which is disclosed to exist in polymorphic forms (WO 2006/106135). The known Asenapine salts have a low solubility in water.

[3] = Aqueous solubility by suspension equilibration in water, concentration in filtrate by HPLC; format: physicochemical
Procedure: The aqueous solubility was determined after 40 hours of suspension equilibration at 25° C. Thereafter, the suspension was filtered and the concentration in the liquid phase was determined by HPLC. The excellent solubility of the Asenapine hydrochloride dihydrate of the invention may render the salt to an excellent alternative to known salts of Asenapine, especially for a fast dissolving formulation.
An HPLC instrument from TSP (UV3000, AS3000, P4000, SCM1000 using software version 4.1) was used in combination with a column from Waters (XTerra MS 018, 4.6×100 mm, 5 μm (CC01A)). The mobile phase A was H2O/ACN 95:5 with 0.1% TFA, and mobile phase B was H2O/ACN 5:95 with 0.1% TFA. The reference concentration was 0.09 mg/mL. The Asenapine peak appeared at a retention time.
4.0-4.1 min. The method was isocratic with 70% mobile phase A and 30% mobile phase B at 0 min and after 10 min at a flow of 1.0 mL/min. The injection volume was 10 μL and the detection wavelength 202 nm.
The aqueous solubility of Asenapine salts is determined in water after 48 hours of suspension equilibration at 25° C. 200 mg of Asenapine hydrochloride is suspended in 1.5 ml of bidistilled water and the resulting suspension is placed on a laboratory shaker at 500 rpm. Thereafter, the suspension is filtered and the concentration in the liquid phase was determined by HPLC as described above. […]

[4] = Water uptake by dynamic vapor absorption; format: physicochemical
Procedure: Asenapine HCl dihydrate of the invention can absorb about 1.5% of additional water at 95% relative humidity at 25° C. and most of the water uptake occurs above 80% relative humidity as shown by dynamic vapor absorption.

solubility [2] [mg/mL] | solubility at 2 days ([3]; pH 4, thermodynamic from solid, 25° C., 600 rpm, two days of equilibration, at a pH of 4.0, read-out: aqueous solubility (concentration of Asenapine in the filtered solution by HPLC)) [mg/mL] | solubility at 40 h ([3]; thermodynamic from solid, at 25° C., calculated as free base, after 40 hours of suspension equilibration, HPLC) [mg/mL] | additional water absorbed ([4]; 95% relative humidity at 25° C., most uptake above 80% relative humidity) | hygroscopicity ([4]; dynamic vapor absorption, 25° C.) | Structure (SMILES) | concentration of saturated solution [1] [µg/mL]
~4.1 |  |  |  |  | CN1C[C@@H]2c3ccccc3Oc3ccc(Cl)cc3[C@H]2C1 (relative stereo) [maleate salt of Asenapine, trans-5-chloro-2-methyl-2,3,3a,12b-tetrahydro-1H-dibenz[2,3:6,7]oxepino[4,5-c]pyrrole] | 5800
 | 24.2 | 24.2 | about 1.5% | not, or only very slightly hygroscopic | CN1C[C@H]2c3ccccc3Oc3ccc(Cl)cc3[C@@H]2C1 (relative stereo) [Asenapine HCl dihydrate, trans-5-chloro-2-methyl-2,3,3a,12b-tetrahydro-1H-dibenz[2,3:6,7]oxepino[4,5-c]pyrrole] | 
